≈ marks a conversion by molar mass, not a printed value. Like-named read-outs stand apart in the source and are kept apart here.
Columns and labels:
Fusarium sambucinum = conditions: for Inhibition of the growth of the Fusarium sambucinum fungi: compound in methanol, more than 10 days at 20° C.; for Inhibition of the growth of the fungi: compound in DMSO, 10 days at 20° C.
Experimental: (§1) The antifungal activity of the N-alkyl-glycosyl(di)amine derivatives of formula (I) and of the N-alkyl-glycamine derivatives of formula (III) synthesized according to the process of the invention was evaluated on two fungi: Fusarium roseum and Fusarium sambucinum.
(§2) For this, 500 μl of solution comprising the test derivative, dissolved in DMSO or methanol, are mixed with 19.5 ml of malt agar medium (Sigma aldrich) allowing the growth of these two Fusarium isolates. The test derivative is prepared in 2 ml of methanol, then mixed with 18 ml of malt agar medium (Sigma aldrich). A spot of 10 μl of culture of each Fusarium is then deposited at the center of each Petri dish. After 10 days of incubation at 20° C., the growth diameters are measured.
(§3) The range of concentrations of N-alkyl-glycosyl(di)amine derivatives of formula (I) tested ranges from 0.1 to 25 μmol/ml.
(§4) The Fusarium growth on media containing the various molecules is compared with that obtained only with DMSO or methanol.
(§5) The same antifungal evaluation protocol as the one previously described with the compound Ij was applied for other N-alkyl-glycosyl(di)amine derivatives of formula (I) and N-alkyl-glycamine derivatives of formula (III) at concentrations ranging from 1 to 20 μmol/ml.
(§6) 2 ml of solution comprising the test compound dissolved in methanol are mixed with 18 ml of agar malt medium (Sigma aldrich) allowing the growth of these two Fusarium isolates. A spot of 10 μl of culture of each Fusarium is then deposited at the center of each Petri dish. After more than 10 days of incubation at 20° C., the growth diameters are measured.

[1] = tested on: Agrobacterium tumefaciens; test: Antibacterial activity (MIC and MBC) in TY medium; assay type: cell-based; conditions: for MBC: plated on TY agar
[2] = tested on: Pectobacterium atrosepticum; test: Antibacterial activity (MIC and MBC) in TY medium; assay type: cell-based; conditions: for MBC: plated on TY agar
Fusarium roseum = conditions: for Inhibition of the growth of the Fusarium roseum fungi: compound in methanol, more than 10 days at 20° C.; for Inhibition of the growth of the fungi: compound in DMSO, 10 days at 20° C.
Experimental: as §1, §2, §3, §4, §5, §6

[3] = tested on: Agrobacterium tumefaciens, Pectobacterium atrosepticum and Dickeya dianthicola bacteria; test: Antibacterial activity, summary statements over the bacteria tested; assay type: cell-based; conditions: for inhibition of the growth of the bacteria (in words): after 36 h of incubation at 30° C., compared with 4-NPO
Dickeya dianthicola = test: Antibacterial activity (MIC and MBC) in TY medium; assay type: cell-based; conditions: for MBC: plated on TY agar
Phytophthora infestans = test: microbe, parasite or virus in culture; assay type: cell-based; conditions: after 6 days; 20 mg in 200 μl distilled water, spots of 10 μl
[4] = 36 h of culture at 30° C., TY medium

| SMILES | Inhibition of the growth of the Fusarium sambucinum fungi (Fusarium sambucinum; 1 μmol/ml) [%] | Inhibition of the growth of the Fusarium sambucinum fungi (Fusarium sambucinum; 2.5 μmol/ml) [%] | Inhibition of the growth of the Fusarium sambucinum fungi (Fusarium sambucinum; 5 μmol/ml) [%] | Inhibition of the growth of the Fusarium sambucinum fungi (Fusarium sambucinum; 10 μmol/ml) [%] | Inhibition of the growth of the Fusarium sambucinum fungi (Fusarium sambucinum; 20 μmol/ml) [%] | MIC [1, 4] [µg/mL] | MBC ([1]; 36 h of culture at 30° C.) [µg/mL] | MIC [2, 4] [µg/mL] | MBC ([2]; 36 h of culture at 30° C.) [µg/mL] | Inhibition of the growth of the Fusarium roseum fungi (Fusarium roseum; 1 μmol/ml) [%] | Inhibition of the growth of the Fusarium roseum fungi (Fusarium roseum; 2.5 μmol/ml) [%] | Inhibition of the growth of the Fusarium roseum fungi (Fusarium roseum; 5 μmol/ml) [%] | Inhibition of the growth of the Fusarium roseum fungi (Fusarium roseum; 10 μmol/ml) [%] | Inhibition of the growth of the Fusarium roseum fungi (Fusarium roseum; 20 μmol/ml) [%] | bactericidal activity (in words) [3] | inhibition of the growth of the bacteria (in words) [3] | Average diameters of inhibition zone (Phytophthora infestans) [mm] | further results |
| --- | --- | --- | --- | --- | --- | --- | --- | --- | --- | --- | --- | --- | --- | --- | --- | --- | --- | --- |
| CC1OC(NCCCCCCCCCCCCN)C(O)C(O)C1O (centres unmarked) [compound Ii] | 28 | 60 | 100 | 100 | 100 | 16 (≈ 46.2 µM) | 32 (≈ 92.3 µM) | 8 (≈ 23.1 µM) | 16 (≈ 46.2 µM) | 0 | 34 | 93 | 93 | 100 | showed a bactericidal activity | – | – | – |
| CC(O)C(O)C(O)C(O)CNCCCCCCCCCCCCN (centres unmarked) [compound IIId] | – | – | – | – | – | 52.5 (≈ 151 µM) | 250 (≈ 717 µM) | 62.5 (≈ 179 µM) | 62.5 (≈ 179 µM) | – | – | – | – | – | showed a bactericidal activity | inhibition of the growth of the bacteria was observed | 0 | MIC (Dickeya dianthicola; [4]): 16 µg/mL (≈ 45.9 µM); MBC (Dickeya dianthicola; 36 h of culture at 30° C.): 125 µg/mL (≈ 359 µM) |
| CCCCCNC1OC(C)[C@H](O)C(O)C1O (some centres unmarked) [compound Ic] | 10 | 33 | 89 | 90 | 100 | 125 (≈ 536 µM) | – | 62.5 (≈ 268 µM) | >500 | 0 | 18 | 99 | 99 | 100 | – | inhibition of the growth of the bacteria was observed | – | – |
| CCCCCCCCCCCCNC1OC(CO)C(O)C(O)C1O (centres unmarked) [compound Ij] | – | – | – | – | – | 8 (≈ 23 µM) | 16 (≈ 46 µM) | 16 (≈ 46 µM) | – | – | – | – | – | – | showed a bactericidal activity | inhibition of the growth of the bacteria was observed | 24 | Inhibition of the growth of the fungi (Fusarium sambucinum; 1 μmol/ml): 50%; Inhibition of the growth of the fungi (Fusarium sambucinum; 2.5 μmol/ml): 50%; Inhibition of the growth of the fungi (Fusarium sambucinum; 5 μmol/ml): 100%; Inhibition of the growth of the fungi (Fusarium sambucinum; 10 μmol/ml): 100%; Inhibition of the growth of the fungi (Fusarium sambucinum; 20 μmol/ml): 100%; Inhibition of the growth of the fungi (Fusarium sambucinum; 25 μmol/ml): 100%; Inhibition of the growth of the fungi (Fusarium roseum; 1 μmol/ml): 100%; Inhibition of the growth of the fungi (Fusarium roseum; 2.5 μmol/ml): 100%; Inhibition of the growth of the fungi (Fusarium roseum; 5 μmol/ml): 100%; Inhibition of the growth of the fungi (Fusarium roseum; 10 μmol/ml): 100%; Inhibition of the growth of the fungi (Fusarium roseum; 20 μmol/ml): 100%; Inhibition of the growth of the fungi (Fusarium roseum; 25 μmol/ml): 100% |
| O=[N+]([O-])c1cc[n+]([O-])cc1 [4-NPO, 4-Nitropyridine-N-oxide, reference compound] | – | – | – | – | – | – | – | – | – | – | – | – | – | – | – | – | – | MIC (Dickeya dianthicola; Dickeya dianthicola, 36 h of culture at 30° C., TY medium, read-out: MIC): 16 µg/mL (≈ 114 µM); MBC (Dickeya dianthicola; Dickeya dianthicola, 36 h of culture at 30° C., read-out: MBC): 16 µg/mL (≈ 114 µM); MIC (Dickeya dianthicola; Dickeya dianthicola, reference bacteriostatic molecule, read-out: MIC): 16 µg/mL (≈ 114 µM); MIC ([1]; Agrobacterium tumefaciens, 36 h, 36 h of culture at 30° C., TY medium, read-out: MIC): 125 µg/mL (≈ 892 µM); MIC ([1]; Agrobacterium tumefaciens, reference bacteriostatic molecule, read-out: MIC): 125 µg/mL (≈ 892 µM); MIC ([2]; Pectobacterium atrosepticum, 36 h, 36 h of culture at 30° C., TY medium, read-out: MIC): 125 µg/mL (≈ 892 µM); MIC ([2]; Pectobacterium atrosepticum, reference bacteriostatic molecule, read-out: MIC): 125 µg/mL (≈ 892 µM) |
| CC1OC(NCCCCCNC2OC(C)[C@H](O)C(O)C2O)C(O)C(O)[C@H]1O (some centres unmarked) [compound Ih] | 12 | 27 | 100 | 100 | 100 | 62.5 (≈ 158 µM) | 500 (≈ 1270 µM) | 62.5 (≈ 158 µM) | 125 (≈ 317 µM) | 0 | 28 | 90 | 93 | 93 | showed a bactericidal activity | inhibition of the growth of the bacteria was observed | – | – |
| CCCCCCCCCCCCNCC(O)C(O)C(O)C(O)CO (centres unmarked) [compound IIIb] | 96 | 96 | 100 | – | – | 16 (≈ 45.8 µM) | 32 (≈ 91.6 µM) | 32 (≈ 91.6 µM) | 32 (≈ 91.6 µM) | 100 | 100 | 100 | – | – | showed a bactericidal activity | inhibition of the growth of the bacteria was observed | 20 | MIC (Dickeya dianthicola; [4]): 62.5 µg/mL (≈ 179 µM); MBC (Dickeya dianthicola; 36 h of culture at 30° C.): 62.5 µg/mL (≈ 179 µM) |
| CC1OC(NCCCCCNC2OC(C)[C@H](O)C(O)C2O)C(O)C(O)[C@H]1O (some centres unmarked) [Ig] | – | – | – | – | – | 125 (≈ 317 µM) | – | 125 (≈ 317 µM) | – | – | – | – | – | – | showed a bactericidal activity | inhibition of the growth of the bacteria was observed | – | MBC ([1]; Agrobacterium tumefaciens, 36 h, 36 h of culture at 30° C., read-out: MBC): 250 µg/mL (≈ 634 µM); MBC ([2]; Pectobacterium atrosepticum, 36 h, 36 h of culture at 30° C., read-out: MBC): 250 µg/mL (≈ 634 µM) |
| CCCCCNC1OC(C)[C@H](O)C(O)C1O (some centres unmarked) [compound Id] | – | – | – | – | – | 62.5 (≈ 268 µM) | 250 (≈ 1070 µM) | 62.5 (≈ 268 µM) | 250 (≈ 1070 µM) | – | – | – | – | – | showed a bactericidal activity | inhibition of the growth of the bacteria was observed | – | – |
| CC1OC(NCCCCCNC2OC(C)[C@H](O)C(O)C2O)C(O)C(O)[C@H]1O (some centres unmarked) [compound If] | – | – | – | – | – | >500 | – | 250 (≈ 634 µM) | – | – | – | – | – | – | – | inhibition of the growth of the bacteria was observed | – | – |
| CCCCNC1OC(C)[C@H](O)C(O)C1O (some centres unmarked) [compound Ib] | 0 | 0 | 4 | 76 | 90 | – | – | – | – | 0 | 0 | 0 | 70 | 88 | – | – | – | – |
| CCCCCCCCCCCCNC1OC(CO)C(O)C(O)C1O (centres unmarked) [compound Ik] | 96 | 96 | 96 | – | – | 2 (≈ 5.76 µM) | – | 16 (≈ 46 µM) | 32 (≈ 92.1 µM) | 96 | 96 | 96 | – | – | showed a bactericidal activity | inhibition of the growth of the bacteria was observed | 24 | – |

Source: patent publication US9969762B2
